Results published in paper PMC12259270, “Sensory neuron–expressed FGF13 controls nociceptive signaling in diabetic neuropathy models” (The Journal of Clinical Investigation, 2025).
Entries after “also recorded” stand apart in the source; their conditions may differ. Residues, ends and D or L forms follow the SMILES beside them. *: point of attachment. Cbz = O=C(OCc1ccccc1)*; OtBu = CC(C)(C)O*

Target: T1, human Nav1.6 (Homo sapiens, UniProt Q9UQD0)
T1 construct: expressed in transfected cells; host or cells: HEK293 stably expressing human Nav1.6
Experiment: Whole-cell patch-clamp, HEK293 cells stably expressing human Nav1.6
Type: cell-based
Protocol: Whole-cell patch clamp electrophysiology
HEK293-Nav1.7 cells, HEK293 stably expressing human Nav1.6 (HEK-Nav1.6), HEK293 stably expressing human Nav1.5 (HEK-Nav1.5), human hIPSC-derived sensory neurons (RealDRGTM from Anatomic Incorporated 1020F1-1M) and donor-derived DRG neurons were plated at low density on glass coverslips and processed for whole-cell patch clamp electrophysiology in voltage-clamp and/or current clamp mode. Whole-cell patch electrophysiological experiments were conducted following previously published studies (26). Current densities were obtained by dividing INa amplitude by membrane capacitance. Current –voltage relationships were generated by plotting current density as a function of the […]. Conductance (G Na) was calculated by the […]
where INa is the current amplitude at voltage Vm, and Erev is the Na+ reversal potential.
Activation curves were derived by plotting normalized GNa as a function of test potential and fitted using […]
Where GNa,Max is the maximum conductance, Va is the membrane potential of half-maximal activation, Em is the membrane voltage and k is the slope factor. For steady -state inactivation, normalized current amplitude (INa/INa,Max) at the test potential was plotted as a function of prepulse potential (Vm) and fitted using the […]
Where Vh is the potential of half-maximal inactivation, E m is the membrane voltage, and k is the slope factor.
Transient INa inactivation decay was estimated with the standard exponential equation. Inactivation time constant (tau, τ) was fitted with the following equation: […]
where I(t) is the amplitude of the current at time t and Iss is the steady-state current during a single voltage-step.
The goodness of fitting was determined by correlation coefficient (R), and the cutoff of R was set at 0.85. To observe effects on long-term inactivation (LTI), a four-step protocol was employed during which cells were subjected to four 0 mV, 20 ms depolarization pulses separated by −90 mV, 40 ms recovery intervals. To control for various cell sizes, the current densities were calculated by dividing INa peak current amplitude/membrane capacitance (Cm). To represent the fraction of channels entering into LTI, the peak INa observed during depolarization cycles 2-4 was normalized to the peak INa observed during depolarization cycle 1 (INa/INa,Cycle 1) and plotted as a function of the depolarization cycle.
The cumulative (frequency-dependent) use-dependency was determined by applying 20 pulses with a depolarization to −10 mV (50 ms duration) and 50 ms recovery intervals with a train of 20 pulses at 10 Hz from a holding potential at -70 mV. The current pulses were normalized to the first reco rded pulse and the currents at the 2nd to 20th pulses were compared. The same train was used to record use-dependency at various frequencies […]
The rate of recovery from inactivation was recorded at -80 mV with a standard repriming voltage protocol.
The cells were prepulsed to -20 mV for 20 ms to inactivate all currents, then driven back to the recovery potential (Vrec) for increasing recovery durations before the test pulse to 0 mV. The maximum pulse rate was 0.5 Hz. The […]
follows previous publications (16). The time constants were estimated from single exponential decay to time courses measured at recovery potentials ranging from -140 to -60 mV with the protocol as mentioned above.
Electrophysiological Recordings
HEK293 cells: Electrophysiological recordings in HEK293 stably expressing Nav1.7 (HEK-Nav1.7), Nav1.5 (HEK-Nav1.5) or Nav1.6 (HEK-Nav1.6) were performed at room temperature using a MultiClamp 700B or an Axopatch 200B amplifier (Molecular Devices) after incubating coverslips for 60 minutes either with 0.1% DMSO or 50 μM PW164 or ZL192 in the extracellular solution. The composition of recording solutions consisted of the […]
following salts: extracellular (mM): 140 NaCl, 3 KCl, 1 MgCl2, 1 CaCl2, 10 HEPES, 10 glucose, pH 7.3; […]
intracellular (mM): 130 CH3O3 SCs, 1 EGTA, 10 NaCl, 10 HEPES, pH 7.3. […]

[1] = HEK293 Nav1.6, FGF13-1a-GFP + PW164

T1 sequence (Q9UQD0 whole entry): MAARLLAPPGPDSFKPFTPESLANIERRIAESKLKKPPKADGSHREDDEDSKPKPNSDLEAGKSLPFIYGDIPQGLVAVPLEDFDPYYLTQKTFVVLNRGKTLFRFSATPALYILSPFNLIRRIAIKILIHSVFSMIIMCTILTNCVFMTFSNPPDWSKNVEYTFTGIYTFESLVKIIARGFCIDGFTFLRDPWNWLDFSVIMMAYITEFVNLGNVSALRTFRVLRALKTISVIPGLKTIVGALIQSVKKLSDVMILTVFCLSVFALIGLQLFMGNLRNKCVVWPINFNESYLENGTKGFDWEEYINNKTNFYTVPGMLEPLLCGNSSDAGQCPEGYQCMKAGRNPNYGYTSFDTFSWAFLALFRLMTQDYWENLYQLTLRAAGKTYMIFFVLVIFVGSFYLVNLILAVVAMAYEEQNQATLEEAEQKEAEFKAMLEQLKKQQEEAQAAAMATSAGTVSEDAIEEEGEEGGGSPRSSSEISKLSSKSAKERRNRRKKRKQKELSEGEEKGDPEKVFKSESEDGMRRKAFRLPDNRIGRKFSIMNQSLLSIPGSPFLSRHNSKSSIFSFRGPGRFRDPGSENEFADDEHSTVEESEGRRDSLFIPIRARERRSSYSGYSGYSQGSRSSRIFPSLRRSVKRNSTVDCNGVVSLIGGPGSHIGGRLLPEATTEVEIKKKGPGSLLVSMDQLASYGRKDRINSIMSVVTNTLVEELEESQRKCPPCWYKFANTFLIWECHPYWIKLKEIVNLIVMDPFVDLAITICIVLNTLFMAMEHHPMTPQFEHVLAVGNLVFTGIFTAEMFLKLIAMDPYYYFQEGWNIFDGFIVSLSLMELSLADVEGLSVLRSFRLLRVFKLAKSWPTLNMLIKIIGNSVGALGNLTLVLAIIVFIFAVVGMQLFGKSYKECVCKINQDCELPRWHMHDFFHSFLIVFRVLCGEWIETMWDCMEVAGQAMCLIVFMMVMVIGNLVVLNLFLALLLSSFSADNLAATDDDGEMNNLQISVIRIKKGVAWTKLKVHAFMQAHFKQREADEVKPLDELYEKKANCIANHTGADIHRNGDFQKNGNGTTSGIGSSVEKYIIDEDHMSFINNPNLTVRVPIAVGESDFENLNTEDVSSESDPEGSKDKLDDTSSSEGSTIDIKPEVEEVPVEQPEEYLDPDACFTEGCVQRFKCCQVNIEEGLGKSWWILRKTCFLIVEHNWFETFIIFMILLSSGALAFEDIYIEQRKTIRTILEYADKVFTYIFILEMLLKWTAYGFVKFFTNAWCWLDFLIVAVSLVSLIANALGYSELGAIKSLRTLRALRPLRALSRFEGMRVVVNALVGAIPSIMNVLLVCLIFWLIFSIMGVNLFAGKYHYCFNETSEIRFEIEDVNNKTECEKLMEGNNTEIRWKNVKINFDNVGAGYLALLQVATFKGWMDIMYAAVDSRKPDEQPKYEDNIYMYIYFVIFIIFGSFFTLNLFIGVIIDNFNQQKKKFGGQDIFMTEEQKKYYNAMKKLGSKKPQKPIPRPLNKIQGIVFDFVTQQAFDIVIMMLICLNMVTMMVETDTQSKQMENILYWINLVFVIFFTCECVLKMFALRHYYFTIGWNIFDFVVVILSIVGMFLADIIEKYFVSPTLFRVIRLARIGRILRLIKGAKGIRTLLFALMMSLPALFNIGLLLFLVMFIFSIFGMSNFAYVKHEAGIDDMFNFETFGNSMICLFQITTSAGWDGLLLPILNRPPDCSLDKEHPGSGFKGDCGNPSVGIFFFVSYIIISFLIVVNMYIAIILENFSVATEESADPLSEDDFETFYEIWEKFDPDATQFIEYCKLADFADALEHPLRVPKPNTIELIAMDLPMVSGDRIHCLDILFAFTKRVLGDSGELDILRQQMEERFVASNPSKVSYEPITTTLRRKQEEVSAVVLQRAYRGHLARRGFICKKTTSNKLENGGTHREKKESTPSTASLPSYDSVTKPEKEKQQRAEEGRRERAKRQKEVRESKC

COC(=O)[C@@H](NC(=O)[C@H](CCC(=O)OC(C)(C)C)NC(=O)[C@H](CC(C)C)NC(=O)[C@@H]1CCCN1C(=O)OCc1ccccc1)C(C)C [PW164] (Cbz-PLE(OtBu)V-OMe)
Activation [1]: −29.2 ± 1.2 mV | Long-term inactivation, 2nd Pulse [1]: −67.4 ± 4.1 % maximal Na+ current | Long-term inactivation, 3rd Pulse [1]: −59.7 ± 4.1 % maximal Na+ current | Long-term inactivation, 4th Pulse [1]: −54.2 ± 4.9 % maximal Na+ current | Peak Density [1]: −102.7 ± 8.8 pA/pF | Steady state inactivation [1]: −50.8 ± 2.1 mV | Tau (τ) [1]: 1.46 ± 0.04 ms | activity on Nav1.6-mediated currents (HEK293 stably expressing Nav1.6 alone or coexpressing FGF13): does not modulate; also recorded: inactive
